{
  "source": "ChEMBL document CHEMBL1177772",
  "about": "“Design and synthesis of benzoazepin-2-one analogs as allosteric binders targeting the PIF pocket of PDK1” (Bioorg Med Chem Lett, 2010)",
  "note": "Residues, ends and D or L forms follow the SMILES beside them.",
  "data": [
    {"molecular_target": "T1, 3-phosphoinositide-dependent protein kinase 1 (Homo sapiens, UniProt O15530)", "T1 sequence (O15530 whole entry)": "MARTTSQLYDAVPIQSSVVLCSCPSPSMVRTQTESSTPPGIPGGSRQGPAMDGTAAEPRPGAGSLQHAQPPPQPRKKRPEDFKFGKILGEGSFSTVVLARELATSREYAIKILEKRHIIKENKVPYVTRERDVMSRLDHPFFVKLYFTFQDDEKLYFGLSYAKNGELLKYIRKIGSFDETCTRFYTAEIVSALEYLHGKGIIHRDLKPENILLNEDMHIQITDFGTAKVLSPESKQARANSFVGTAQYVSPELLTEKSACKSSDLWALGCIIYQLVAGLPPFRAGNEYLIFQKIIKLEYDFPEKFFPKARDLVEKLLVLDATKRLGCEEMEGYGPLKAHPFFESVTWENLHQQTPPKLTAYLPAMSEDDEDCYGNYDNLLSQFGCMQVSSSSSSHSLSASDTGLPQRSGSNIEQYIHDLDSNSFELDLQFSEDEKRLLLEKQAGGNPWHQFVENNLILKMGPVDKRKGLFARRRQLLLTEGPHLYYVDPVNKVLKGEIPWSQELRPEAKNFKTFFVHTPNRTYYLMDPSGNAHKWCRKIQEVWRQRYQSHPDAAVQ", "assay": "(§1) Displacement of PIFtide from His-tagged PDK1 by HTRF assay", "conditions": "not given; call rule not given here", "values": [
      {"smiles": "COC(=O)CN1C(=O)C(Oc2ccccc2)CCc2ccccc21", "note": "(stereo unspecified)", "EC50": "Not Active"},
      {"smiles": "O=C(O)CN1C(=O)C(NC(=O)c2ccccc2)CCc2ccccc21", "note": "(stereo unspecified)", "EC50": "Not Active"},
      {"smiles": "O=C(O)CN1C(=O)C(OC(=O)c2ccccc2)CCc2ccccc21", "note": "(stereo unspecified)", "EC50": "Not Active"},
      {"smiles": "COC(=O)CN1C(=O)C(NS(=O)(=O)c2ccccc2)CCc2ccccc21", "note": "(stereo unspecified)", "EC50": "Not Active"},
      {"smiles": "O=C(O)CN1C(=O)N(Cc2ccccc2)CCc2ccccc21", "EC50": "Not Active"},
      {"smiles": "COC(=O)CN1C(=O)N(Cc2ccccc2)CCc2ccccc21", "EC50": "Not Active"},
      {"smiles": "O=C(O)CN1C(=O)C(Oc2ccccc2)CCc2ccccc21", "note": "(stereo unspecified)", "EC50": "Not Active"},
      {"smiles": "O=C(O)CN1C(=O)C(NS(=O)(=O)c2ccccc2)CCc2ccccc21", "note": "(stereo unspecified)", "EC50": "Not Active"},
      {"smiles": "COC(=O)CN1C(=O)C(OC(=O)c2ccccc2)CCc2ccccc21", "note": "(stereo unspecified)", "EC50": "Not Active"},
      {"smiles": "COC(=O)CN1C(=O)C(Nc2ccccc2)CCc2ccccc21", "note": "(stereo unspecified)", "EC50": "Not Active"},
      {"smiles": "COC(=O)CN1C(=O)C(NC(=O)c2ccccc2)CCc2ccccc21", "note": "(stereo unspecified)", "EC50": "Not Active"},
      {"smiles": "COC(=O)CN1C(=O)C(Sc2ccccc2)CCc2ccccc21", "note": "(stereo unspecified)", "EC50": "Not Active"}
    ]},
    {"molecular_target": "T1, 3-phosphoinositide-dependent protein kinase 1", "assay": "as §1", "conditions": "read-out: EC50", "units": {"EC50": "µM"}, "values": [
      {"smiles": "O=C(O)CN1C(=O)C(Sc2ccc(Cl)cc2)CCc2ccccc21", "note": "(stereo unspecified)", "EC50": 23},
      {"smiles": "O=C(O)CN1C(=O)C(Sc2ccccc2)CCc2ccccc21", "note": "(stereo unspecified)", "EC50": 101},
      {"smiles": "O=C(O)CN1C(=O)C(Nc2ccccc2)CCc2ccccc21", "note": "(stereo unspecified)", "EC50": 900},
      {"smiles": "CC[C@H](C)[C@H](NC(=O)[C@H](Cc1ccc(O)cc1)NC(=O)[C@H](CC(=O)O)NC(=O)[C@H](Cc1ccccc1)NC(=O)[C@H](CC(=O)O)NC(=O)[C@H](CCCNC(=N)N)NC(=O)[C@H](Cc1ccccc1)NC(=O)[C@H](CCSC)NC(=O)[C@H](CCC(=O)O)NC(=O)[C@@H](N)CCC(N)=O)C(=O)N[C@@H](C)C(=O)N[C@@H](CC(=O)O)C(=O)N[C@@H](Cc1c[nH]c2ccccc12)C(=O)O", "note": "(H-QEMFRDFDYIADW-OH)", "EC50": 10},
      {"smiles": "O=C(O)CN1C(=O)C(Sc2ccc(Cl)cc2Cl)CCc2ccccc21", "note": "(stereo unspecified)", "EC50": 75},
      {"smiles": "O=C(O)CN1C(=O)C(Sc2ccc(C(=O)O)cc2)CCc2ccccc21", "note": "(stereo unspecified)", "EC50": 187},
      {"smiles": "O=C(O)CSC(CC(=O)c1ccc(Cl)cc1)c1ccccc1", "note": "(stereo unspecified)", "EC50": 133},
      {"smiles": "O=C(O)CN1C(=O)C(Sc2c(Cl)cccc2Cl)CCc2ccccc21", "note": "(stereo unspecified)", "EC50": 45},
      {"smiles": "COc1ccc(SC2CCc3ccccc3N(CC(=O)O)C2=O)cc1", "note": "(stereo unspecified)", "EC50": 53}
    ]}
  ]
}
